The values below come from BindingDB's records for doi:10.3109/14756366.2011.555944 (Aristotle University of Thessaloniki, 2011).

The target in the assay is T1, Seed linoleate 13S-lipoxygenase-1 (Glycine max, UniProt P08170).
T1 sequence (P08170 whole entry): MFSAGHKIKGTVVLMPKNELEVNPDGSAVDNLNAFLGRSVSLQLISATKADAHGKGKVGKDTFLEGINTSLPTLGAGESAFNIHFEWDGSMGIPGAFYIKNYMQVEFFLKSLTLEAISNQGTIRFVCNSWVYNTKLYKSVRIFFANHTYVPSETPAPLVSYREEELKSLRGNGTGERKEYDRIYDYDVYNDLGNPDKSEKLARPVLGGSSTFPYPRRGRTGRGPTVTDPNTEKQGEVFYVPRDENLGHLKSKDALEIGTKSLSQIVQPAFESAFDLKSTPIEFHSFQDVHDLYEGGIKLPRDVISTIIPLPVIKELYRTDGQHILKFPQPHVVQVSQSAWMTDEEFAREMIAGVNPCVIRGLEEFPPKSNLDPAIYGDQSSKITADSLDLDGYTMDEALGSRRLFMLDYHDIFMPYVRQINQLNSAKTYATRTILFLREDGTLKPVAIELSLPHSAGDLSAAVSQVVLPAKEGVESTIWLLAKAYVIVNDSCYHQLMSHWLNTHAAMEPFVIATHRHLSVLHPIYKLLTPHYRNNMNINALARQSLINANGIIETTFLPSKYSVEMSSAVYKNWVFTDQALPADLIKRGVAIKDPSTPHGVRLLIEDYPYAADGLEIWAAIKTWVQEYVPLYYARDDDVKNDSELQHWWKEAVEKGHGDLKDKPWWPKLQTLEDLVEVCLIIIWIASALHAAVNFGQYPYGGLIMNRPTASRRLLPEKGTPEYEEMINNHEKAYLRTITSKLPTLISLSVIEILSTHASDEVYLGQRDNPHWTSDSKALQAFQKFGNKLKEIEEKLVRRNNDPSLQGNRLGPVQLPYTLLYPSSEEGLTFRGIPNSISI
The assay can be described thus: In Vitro LOX Inhibition Assay. The conditions noted are these: 25 °C.

In turn, `Cc1cc(=O)oc2c3c(ccc12)OCC=CC3` [4-Methyl-8,11-dihydro-2H-oxepino[2,3-h]chromen-2-one (7b)] came in with a half-maximal inhibitory concentration (IC50) of 180 µM.

Compound `O=c1ccc2ccc3c(c2o1)CC=CCO3` [8,11-Dihydro-2H-oxepino[2,3-h]chromen-2-one (7a)] gave an IC50 of 310 µM.

As usually defined, the IC50 is the concentration that gives 50% inhibition. Lower therefore signals higher potency.
